Test results as given in patent US7553864B2, “Compounds for the treatment of inflammatory disorders and microbial diseases” (Schering Corporation, priority 2005, dated 2009).
Read-outs that look alike come from different tables or passages of the source.

Target: T1, ADMP (ADAMTS-4-5) (Homo sapiens, UniProt O75173)
T1 construct: purchased Calbiochem PF113
T1 sequence (O75173 213-837): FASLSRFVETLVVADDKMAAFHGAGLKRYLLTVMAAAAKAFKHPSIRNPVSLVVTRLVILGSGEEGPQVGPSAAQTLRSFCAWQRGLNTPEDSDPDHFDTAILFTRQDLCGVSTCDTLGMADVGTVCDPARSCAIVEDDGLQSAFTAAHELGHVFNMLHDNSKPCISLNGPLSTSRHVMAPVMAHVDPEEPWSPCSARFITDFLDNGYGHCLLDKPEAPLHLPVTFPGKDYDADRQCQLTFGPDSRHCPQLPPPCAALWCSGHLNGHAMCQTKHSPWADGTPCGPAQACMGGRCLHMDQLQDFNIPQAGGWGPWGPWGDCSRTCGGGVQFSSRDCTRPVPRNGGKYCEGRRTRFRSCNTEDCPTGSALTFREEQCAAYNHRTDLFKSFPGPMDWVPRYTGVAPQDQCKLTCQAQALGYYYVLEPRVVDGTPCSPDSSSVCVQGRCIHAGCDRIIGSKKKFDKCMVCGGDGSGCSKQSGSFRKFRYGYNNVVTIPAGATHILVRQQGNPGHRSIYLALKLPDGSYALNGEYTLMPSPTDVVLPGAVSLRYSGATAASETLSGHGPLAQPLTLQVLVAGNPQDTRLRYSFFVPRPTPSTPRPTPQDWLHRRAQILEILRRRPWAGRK
Assay: ADMP activity assay (procedures of WO00/05256)
Type: biochemical
Excerpt: The procedures of International Patent Publication WO00/05256 (published Feb. 3, 2000) were followed for detection of ADMP Activity and for measuring the IC50 of the compounds of the present invention. This was indicative of activity against a desintgrin and metallopropeinase thrombo spondin 4 and 5 (ADAMTS-4-5).
The enzyme was purchased commercially from Calbiochem (Cat# PF113) and the peptide substrate described in the patent was custom-ordered from AnaSpec.

[1] = read-out: IC50 rating (ADMP inhibitory activity)
[2] = read-out: IC50 (ADMP inhibition)

| SMILES | IC50 [1] [nM] | IC50 [2] [nM] | IC50 [nM] |
| --- | --- | --- | --- |
| CN(C(=O)[C@H](O)[C@@H](O)C(=O)NCc1ccc(C(F)(F)F)cc1)C1CCCCC1 [Compound 125] | 250 to 1000 | – | – |
| O=C(NCc1ccc(C(F)(F)F)cc1)[C@H](O)[C@@H](O)C(=O)N1CCN(c2ccc(F)cc2)CC1 [Compound 126] | 250 to 1000 | – | – |
| CN(C)CCN(C)C(=O)[C@H](O)[C@@H](O)C(=O)NCc1ccc(C(F)(F)F)cc1 [Compound 127] | > 5000 | – | – |
| COc1ccc(N2CCN(C(=O)[C@H](O)[C@@H](O)C(=O)N[C@@H](C)c3ccc(Br)cc3)CC2)cc1 [Compound 130] | < 250 | 170 | – |
| COc1ccc(N2CCN(C(=O)[C@H](O)[C@@H](O)C(=O)NCCc3cccc(Cl)c3)CC2)cc1 [Compound 131] | 250 to 1000 | – | – |
| COc1ccc(N2CCN(C(=O)[C@H](O)[C@@H](O)C(=O)NCc3ccc(Cl)cc3)CC2)cc1 [Compound 132] | 250 to 1000 | – | – |
| CC(=O)C1(c2ccccc2)CCN(C(=O)[C@H](O)[C@@H](O)C(=O)N[C@@H](C)c2ccc(Br)cc2)CC1 [Compound 133] | – | – | < 250 |
| COc1ccc(CNC(=O)[C@H](O)[C@@H](O)C(=O)N2CCC[C@H]2CN2CCCC2)cc1 [Compound 134] | 250 to 1000 | – | – |
| C[C@H](NC(=O)[C@H](O)[C@@H](O)C(=O)N1Cc2ccccc2C[C@@H]1CO)c1ccc(Br)cc1 [Compound 138] | < 250 | 190 | – |
| C[C@H](NC(=O)[C@H](O)[C@@H](O)C(=O)N(C)Cc1cc(Cl)cc(Cl)c1)c1ccc(Br)cc1 [Compound 139] | 250 to 1000 | – | – |
| Cc1ccc(N2CCN(C(=O)[C@H](O)[C@@H](O)C(=O)N[C@@H](C)c3ccc(Br)cc3)CC2)cc1C [Compound 142] | 250 to 1000 | – | – |
| COc1cccc(N2CCN(C(=O)[C@H](O)[C@@H](O)C(=O)N[C@@H](C)c3ccc(Br)cc3)CC2)c1 [Compound 143] | < 250 | 90 | – |
| C[C@H](NC(=O)[C@H](O)[C@@H](O)C(=O)N1CCN(c2ccc(F)cc2F)CC1)c1ccc(Br)cc1 [Compound 144] | < 250 | – | – |
| C[C@H](NC(=O)[C@H](O)[C@@H](O)C(=O)N1CCC(S(=O)(=O)c2ccccc2)CC1)c1ccc(Br)cc1 [Compound 148] | < 250 | 47 | – |
| C[C@H](NC(=O)[C@H](O)[C@@H](O)C(=O)N1CCC(Oc2ccccc2)CC1)c1ccc(Br)cc1 [Compound 149] | < 250 | 90 | – |
| C[C@H](NC(=O)[C@H](O)[C@@H](O)C(=O)N1CCN(c2ccc(O)cc2)CC1)c1ccc(Br)cc1 [Compound 150] | 1000 to 5000 | – | – |
| C[C@H](NC(=O)[C@H](O)[C@@H](O)C(=O)N1CCC(c2nc3ccccc3s2)CC1)c1ccc(Br)cc1 [Compound 151] | < 250 | – | – |
| C[C@H](NC(=O)[C@H](O)[C@@H](O)C(=O)N1CCC2(CC1)C(=O)Nc1ccccc12)c1ccc(Br)cc1 [Compound 152] | 1000 to 5000 | – | – |
| C[C@H](NC(=O)[C@H](O)[C@@H](O)C(=O)N1CCC2(CCCNC2)CC1)c1ccc(Br)cc1 [Compound 158] | > 5000 | – | – |
| C[C@H](NC(=O)[C@H](O)[C@@H](O)C(=O)N1CCCC1c1nc2ccccc2s1)c1ccc(Br)cc1 (some centres unmarked) [Compound 160] | < 250 | 160 | – |
| COc1ccccc1N1CCN(C(=O)[C@H](O)[C@@H](O)C(=O)N[C@@H](C)c2ccc(Br)cc2)CC1 [Compound 164] | 250 to 1000 | – | – |
| C[C@H](NC(=O)[C@H](O)[C@@H](O)C(=O)N1CCC(N2C(=O)Cc3ccccc32)CC1)c1ccc(Br)cc1 [Compound 165] | – | – | 1000 to 5000 |
| C[C@H](NC(=O)[C@H](O)[C@@H](O)C(=O)N1CCc2c([nH]c3ccccc23)C1)c1ccc(Br)cc1 [Compound 169] | 250 to 1000 | – | – |
| C[C@H](NC(=O)[C@H](O)[C@@H](O)C(=O)N1CCCC1c1ccccc1)c1ccc(Br)cc1 (some centres unmarked) [Compound 172] | 250 to 1000 | – | – |
| C[C@H](NC(=O)[C@H](O)[C@@H](O)C(=O)N[C@@H]1c2ccccc2C[C@@H]1O)c1ccc(Br)cc1 [Compound 173] | > 5000 | – | – |
| C[C@H](NC(=O)[C@H](O)[C@@H](O)C(=O)N[C@H]1c2ccccc2C[C@H]1O)c1ccc(Br)cc1 [Compound 174] | > 5000 | – | – |
